Measurements taken from ChEMBL document CHEMBL1687837, “Roles of residues Cys69, Asn104, Phe160, Gly232, Ser237, and Asp240 in extended-spectrum beta-lactamase Toho-1” (2011).
≈ marks a conversion by molar mass, not a printed value.

Tests used:
Escherichia coli [1] = experiment: Activity of Escherichia coli beta-lactamase Toho-1 D240S mutant assessed as compound hydrolysis by spectrophotometry
Escherichia coli [2] = experiment: Ratio of Kcat to Km for Escherichia coli beta-lactamase Toho-1 D240A mutant assessed as compound hydrolysis by spectrophotometry
Escherichia coli [3] = experiment: Ratio of Kcat to Km for Escherichia coli beta-lactamase Toho-1 […] mutant assessed as compound hydrolysis by spectrophotometry
Escherichia coli [4] = experiment: Ratio of Kcat to Km for Escherichia coli beta-lactamase Toho-1 F160T mutant assessed as compound hydrolysis by spectrophotometry
Escherichia coli [5] = experiment: Ratio of Kcat to Km for Escherichia coli beta-lactamase Toho-1 N104D mutant assessed as compound hydrolysis by spectrophotometry
Escherichia coli [6] = experiment: Antibacterial activity against Escherichia coli AS226 carrying pBSDF160T mutant after 18 hrs by broth microdilution method; assay type: functional; settings: AS226, 18 h
Escherichia coli [7] = experiment: Antibacterial activity against Escherichia coli AS226 carrying pBSDC69A mutant after 18 hrs by broth microdilution method; assay type: functional; settings: AS226, 18 h
Escherichia coli [8] = experiment: Antibacterial activity against Escherichia coli AS226 carrying pBSDN104A mutant after 18 hrs by broth microdilution method; assay type: functional; settings: AS226, 18 h
Escherichia coli [9] = experiment: Antibacterial activity against Escherichia coli AS226 carrying pBSD6 mutant after 18 hrs by broth microdilution method; assay type: functional; settings: AS226, 18 h
Escherichia coli [10] = experiment: Activity of Escherichia coli beta-lactamase Toho-1 F160T mutant assessed as compound hydrolysis by spectrophotometry
Escherichia coli [11] = experiment: Antibacterial activity against Escherichia coli AS226 carrying pBSD-H2 after 18 hrs by broth microdilution method; assay type: functional; settings: AS226, 18 h
Escherichia coli [12] = experiment: Ratio of Kcat to Km for Escherichia coli beta-lactamase Toho-1 C69A mutant assessed as compound hydrolysis by spectrophotometry
Escherichia coli [13] = experiment: Ratio of Kcat to Km for Escherichia coli beta-lactamase Toho-1 G232A mutant assessed as compound hydrolysis by spectrophotometry
Escherichia coli [14] = experiment: Activity of Escherichia coli beta-lactamase Toho-1 C69A mutant assessed as compound hydrolysis by spectrophotometry
Escherichia coli [15] = experiment: Antibacterial activity against Escherichia coli AS226 carrying pBSDD240A mutant after 18 hrs by broth microdilution method; assay type: functional; settings: AS226, 18 h
Escherichia coli [16] = experiment: Activity of Escherichia coli beta-lactamase Toho-1 G232A mutant assessed as compound hydrolysis by spectrophotometry
Escherichia coli [17] = experiment: Activity of Escherichia coli beta-lactamase Toho-1 […] mutant assessed as compound hydrolysis by spectrophotometry
Escherichia coli [18] = experiment: Antibacterial activity against Escherichia coli AS226 after 18 hrs by broth microdilution method; assay type: functional; settings: AS226, 18 h
Escherichia coli [19] = experiment: Ratio of Kcat to Km for Escherichia coli beta-lactamase Toho-1 N104A mutant assessed as compound hydrolysis by spectrophotometry
Escherichia coli [20] = experiment: Antibacterial activity against Escherichia coli AS226 carrying pBSDN104D mutant after 18 hrs by broth microdilution method; assay type: functional; settings: AS226, 18 h
Escherichia coli [21] = experiment: Antibacterial activity against Escherichia coli AS226 carrying pBSDS237A mutant after 18 hrs by broth microdilution method; assay type: functional; settings: AS226, 18 h
Escherichia coli [22] = experiment: Antibacterial activity against Escherichia coli AS226 carrying pBSDD240S mutant after 18 hrs by broth microdilution method; assay type: functional; settings: AS226, 18 h
Escherichia coli [23] = experiment: Ratio of Kcat to Km for Escherichia coli beta-lactamase Toho-1 D240S mutant assessed as compound hydrolysis by spectrophotometry
Escherichia coli [24] = experiment: Activity of Escherichia coli beta-lactamase Toho-1 D240A mutant assessed as compound hydrolysis by spectrophotometry
Escherichia coli [25] = experiment: Activity of Escherichia coli beta-lactamase Toho-1 N104D mutant assessed as compound hydrolysis by spectrophotometry
Escherichia coli [26] = experiment: Activity of Escherichia coli beta-lactamase Toho-1 N104A mutant assessed as compound hydrolysis by spectrophotometry
[27] = substrate: CC1(C)S[C@@H]2[C@H](NC(=O)[C@H](N)c3ccccc3)C(=O)N2[C@H]1C(=O)O; experiment: (§1) Activity of Escherichia coli wild type beta-lactamase Toho-1 assessed as compound hydrolysis by spectrophotometry
[28] = substrate: CO/N=C(\C(=O)N[C@@H]1C(=O)N2C(C(=O)O)=C(CSc3cnns3)CS[C@H]12)c1csc(N)n1; experiment: as §1
[29] = substrate: CO/N=C(\C(=O)N[C@@H]1C(=O)N2C(C(=O)O)=C(COC(C)=O)CS[C@H]12)c1csc(N)n1; experiment: as §1
[30] = substrate: O=C(Cc1cccs1)N[C@@H]1C(=O)N2C(C(=O)[O-])=C(C[n+]3ccccc3)CS[C@H]12; experiment: as §1
[31] = substrate: CC(=O)OCC1=C(C(=O)O)N2C(=O)[C@@H](NC(=O)Cc3cccs3)[C@H]2SC1; experiment: as §1
[32] = substrate: C[C@H]1[C@H](NC(=O)/C(=N\OC(C)(C)C(=O)O)c2csc(N)n2)C(=O)N1S(=O)(=O)O; experiment: as §1
[33] = substrate: CO/N=C(\C(=O)N[C@@H]1C(=O)N2C(C(=O)O)=C(CSc3cnns3)CS[C@H]12)c1csc(N)n1; experiment: (§2) Ratio of Kcat to Km for Escherichia coli wild type beta-lactamase Toho-1 assessed as compound hydrolysis by spectrophotometry
[34] = substrate: CO/N=C(\C(=O)N[C@@H]1C(=O)N2C(C(=O)O)=C(COC(C)=O)CS[C@H]12)c1csc(N)n1; experiment: as §2
[35] = substrate: O=C(Cc1cccs1)N[C@@H]1C(=O)N2C(C(=O)[O-])=C(C[n+]3ccccc3)CS[C@H]12; experiment: as §2
[36] = substrate: CC(=O)OCC1=C(C(=O)O)N2C(=O)[C@@H](NC(=O)Cc3cccs3)[C@H]2SC1; experiment: as §2
[37] = substrate: C[C@H]1[C@H](NC(=O)/C(=N\OC(C)(C)C(=O)O)c2csc(N)n2)C(=O)N1S(=O)(=O)O; experiment: as §2

## CO/N=C(\C(=O)N[C@@H]1C(=O)N2C(C(=O)O)=C(CSc3cnns3)CS[C@H]12)c1csc(N)n1 [CEFUZONAM]
Escherichia coli [1]
  Km: 220 µM
  kcat: 430 s⁻¹
Escherichia coli [2]
  kcat/Km: 2.1 ×10⁶ /s/M
Escherichia coli [3]
  kcat/Km: 9.4 ×10⁵ /s/M
Escherichia coli [4]
  kcat/Km: 2.1 ×10⁶ /s/M
Escherichia coli [5]
  kcat/Km: 5.7 ×10⁵ /s/M
Escherichia coli [6]
  MIC: 512 µg/mL (≈ 997 µM)
Escherichia coli [7]
  MIC: 2050 µg/mL (≈ 3990 µM)
Escherichia coli [8]
  MIC: 16 µg/mL (≈ 31.2 µM)
Escherichia coli [9]
  MIC: 2 µg/mL (≈ 3.89 µM)
Escherichia coli [10]
  Km: 220 µM
  kcat: 470 s⁻¹
Escherichia coli [11]
  MIC: 2050 µg/mL (≈ 3990 µM)
Escherichia coli [12]
  kcat/Km: 2.3 ×10⁶ /s/M
Escherichia coli [13]
  kcat/Km: 3.3 ×10⁶ /s/M
Escherichia coli [14]
  Km: 240 µM
  kcat: 560 s⁻¹
Escherichia coli [15]
  MIC: 1020 µg/mL (≈ 1990 µM)
Escherichia coli [16]
  Km: 190 µM
  kcat: 630 s⁻¹
Escherichia coli [17]
  Km: 140 µM
  kcat: 130 s⁻¹
Escherichia coli [18]
  MIC: < 0.125 µg/mL
Escherichia coli [19]
  kcat/Km: 2.8 ×10⁵ /s/M
Escherichia coli [20]
  MIC: 64 µg/mL (≈ 125 µM)
Escherichia coli [21]
  MIC: 1020 µg/mL (≈ 1990 µM)
Escherichia coli [22]
  MIC: 256 µg/mL (≈ 498 µM)
Escherichia coli [23]
  kcat/Km: 2 ×10⁶ /s/M
Escherichia coli [24]
  Km: 260 µM
  kcat: 550 s⁻¹

## O=C(Cc1cccs1)N[C@@H]1C(=O)N2C(C(=O)[O-])=C(C[n+]3ccccc3)CS[C@H]12 [CEPHALORIDINE]
Escherichia coli [1]
  Km: 250 µM
  kcat: 190 s⁻¹
Escherichia coli [2]
  kcat/Km: 7.1 ×10⁵ /s/M
Escherichia coli [3]
  kcat/Km: 1.2 ×10⁶ /s/M
Escherichia coli [4]
  kcat/Km: 1.1 ×10⁶ /s/M
Escherichia coli [5]
  kcat/Km: 3 ×10⁵ /s/M
Escherichia coli [6]
  MIC: 512 µg/mL (≈ 1230 µM)
Escherichia coli [7]
  MIC: 1020 µg/mL (≈ 2460 µM)
Escherichia coli [8]
  MIC: 32 µg/mL (≈ 77 µM)
Escherichia coli [9]
  MIC: 8 µg/mL (≈ 19.3 µM)
Escherichia coli [10]
  Km: 430 µM
  kcat: 470 s⁻¹
Escherichia coli [11]
  MIC: 1020 µg/mL (≈ 2460 µM)
Escherichia coli [12]
  kcat/Km: 1 ×10⁶ /s/M
Escherichia coli [13]
  kcat/Km: 1.5 ×10⁶ /s/M
Escherichia coli [14]
  Km: 300 µM
  kcat: 300 s⁻¹
Escherichia coli [15]
  MIC: 1020 µg/mL (≈ 2460 µM)
Escherichia coli [16]
  Km: 290 µM
  kcat: 440 s⁻¹
Escherichia coli [25]
  Km: 400 µM
  kcat: 120 s⁻¹
Escherichia coli [17]
  Km: 270 µM
  kcat: 320 s⁻¹
Escherichia coli [18]
  MIC: 2 µg/mL (≈ 4.81 µM)
Escherichia coli [26]
  Km: 450 µM
  kcat: 99 s⁻¹
Escherichia coli [19]
  kcat/Km: 2.2 ×10⁵ /s/M
Escherichia coli [20]
  MIC: 256 µg/mL (≈ 616 µM)
Escherichia coli [21]
  MIC: 2050 µg/mL (≈ 4930 µM)
Escherichia coli [22]
  MIC: 1020 µg/mL (≈ 2460 µM)
Escherichia coli [23]
  kcat/Km: 7.6 ×10⁵ /s/M
Escherichia coli [24]
  Km: 200 µM
  kcat: 140 s⁻¹

## CC(=O)OCC1=C(C(=O)O)N2C(=O)[C@@H](NC(=O)Cc3cccs3)[C@H]2SC1 [CEPHALOTHIN]
Escherichia coli [1]
  Km: 120 µM
  kcat: 410 s⁻¹
Escherichia coli [2]
  kcat/Km: 3.3 ×10⁶ /s/M
Escherichia coli [3]
  kcat/Km: 4.8 ×10⁶ /s/M
Escherichia coli [4]
  kcat/Km: 4.1 ×10⁶ /s/M
Escherichia coli [5]
  kcat/Km: 2.8 ×10⁶ /s/M
Escherichia coli [6]
  MIC: 2050 µg/mL (≈ 5170 µM)
Escherichia coli [7]
  MIC: 2050 µg/mL (≈ 5170 µM)
Escherichia coli [8]
  MIC: 512 µg/mL (≈ 1290 µM)
Escherichia coli [9]
  MIC: 128 µg/mL (≈ 323 µM)
Escherichia coli [10]
  Km: 170 µM
  kcat: 690 s⁻¹
Escherichia coli [11]
  MIC: 2050 µg/mL (≈ 5170 µM)
Escherichia coli [12]
  kcat/Km: 4 ×10⁶ /s/M
Escherichia coli [13]
  kcat/Km: 4.1 ×10⁶ /s/M
Escherichia coli [14]
  Km: 200 µM
  kcat: 780 s⁻¹
Escherichia coli [15]
  MIC: 2050 µg/mL (≈ 5170 µM)
Escherichia coli [16]
  Km: 150 µM
  kcat: 620 s⁻¹
Escherichia coli [25]
  Km: 70 µM
  kcat: 200 s⁻¹
Escherichia coli [17]
  Km: 77 µM
  kcat: 370 s⁻¹
Escherichia coli [18]
  MIC: 2 µg/mL (≈ 5.04 µM)
Escherichia coli [26]
  Km: 140 µM
  kcat: 180 s⁻¹
Escherichia coli [19]
  kcat/Km: 1.2 ×10⁶ /s/M
Escherichia coli [20]
  MIC: 2050 µg/mL (≈ 5170 µM)
Escherichia coli [21]
  MIC: 2050 µg/mL (≈ 5170 µM)
Escherichia coli [22]
  MIC: 2050 µg/mL (≈ 5170 µM)
Escherichia coli [23]
  kcat/Km: 3.3 ×10⁶ /s/M
Escherichia coli [24]
  Km: 98 µM
  kcat: 320 s⁻¹

## C[C@@H](O)[C@H]1C(=O)N2C(C(=O)O)=C(SCCNC=N)C[C@H]12 [IMIPENEM ANHYDROUS]
Escherichia coli [8]
  MIC: 0.125 µg/mL (≈ 0.418 µM)
Escherichia coli [11]
  MIC: < 0.125 µg/mL
Escherichia coli [15]
  MIC: 0.125 µg/mL (≈ 0.418 µM)
Escherichia coli [18]
  MIC: < 0.125 µg/mL
Escherichia coli [20]
  MIC: 0.125 µg/mL (≈ 0.418 µM)

B1: Beta-lactamase Toho-1 (Escherichia coli), Q47066 (protein)
chain: MMTQSIRRSMLTVMATLPLLFSSATLHAQANSVQQQLEALEKSSGGRLGVALINTADNSQILYRADERFAMCSTSKVMAAAAVLKQSESDKHLLNQRVEIKKSDLVNYNPIAEKHVNGTMTLAELGAAALQYSDNTAMNKLIAHLGGPDKVTAFARSLGDETFRLDRTEPTLNTAIPGDPRDTTTPLAMAQTLKNLTLGKALAETQRAQLVTWLKGNTTGSASIRAGLPKSWVVGDKTGSGDYGTTNDIAVIWPENHAPLVLVTYFTQPEQKAERRRDILAAAAKIVTHGF
[27]
  Km: 24 µM
  kcat: 42 s⁻¹
[28]
  Km: 150 µM
  kcat: 530 s⁻¹
[29]
  Km: 210 µM
  kcat: 390 s⁻¹
[30]
  Km: 280 µM
  kcat: 420 s⁻¹
[31]
  Km: 190 µM
  kcat: 790 s⁻¹
[32]
  Km: 45 µM
  kcat: 8.3 s⁻¹
[33]
  kcat/Km: 3.5 ×10⁶ /s/M
[34]
  kcat/Km: 1.9 ×10⁶ /s/M
[35]
  kcat/Km: 1.5 ×10⁶ /s/M
[36]
  kcat/Km: 4.3 ×10⁶ /s/M
[37]
  kcat/Km: 1.9 ×10⁵ /s/M
